Patent US20240150277A1, “Covalent PPARG inverse-agonists” (Bayer Aktiengesellschaft, priority 2022, published 2024)
Read-outs that look alike come from different tables or passages of the source.

Experiments:
[1] = target: T1, PPARG receptors (Homo sapiens, UniProt P37231); test: RT-112-FABP4-NLuc Reporter Gene Assay (inverse agonism); assay type: cell-based; conditions: incubated over night; for IC50: bladder cancer cell line RT-112/84, NanoLuc in FABP4 3′ UTR, 50 μM to 0.03 nM; for Emax: RT112/84, read-out: PPARG_RT-112_FABP4_NLuc_inverse agonist Efficacy - [%], bladder cancer cell line RT-112/84, NanoLuc in FABP4 3′ UTR
T1 construct: leading to PPARG dependent expression of the NanoLuc@ Luciferase; endogenous in cells
T1 sequence (P37231 1-505): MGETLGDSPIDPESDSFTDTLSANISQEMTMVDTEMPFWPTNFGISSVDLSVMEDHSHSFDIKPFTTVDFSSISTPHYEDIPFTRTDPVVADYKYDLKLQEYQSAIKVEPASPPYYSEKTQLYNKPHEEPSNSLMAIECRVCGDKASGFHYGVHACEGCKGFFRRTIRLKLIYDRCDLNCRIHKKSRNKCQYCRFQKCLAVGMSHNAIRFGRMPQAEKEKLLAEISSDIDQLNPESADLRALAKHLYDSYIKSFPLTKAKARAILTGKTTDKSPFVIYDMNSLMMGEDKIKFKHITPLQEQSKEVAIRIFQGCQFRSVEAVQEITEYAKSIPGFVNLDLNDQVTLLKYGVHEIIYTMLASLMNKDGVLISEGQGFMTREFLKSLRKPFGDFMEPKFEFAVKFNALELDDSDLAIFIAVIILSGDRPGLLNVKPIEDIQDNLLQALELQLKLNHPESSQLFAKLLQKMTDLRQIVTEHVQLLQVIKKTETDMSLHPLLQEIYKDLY
Protocol: Inverse agonists reduce the basal expression of the Luciferase resulting in a decrease of the Luciferase signal after addition of substrate and cell lysis. To exclude toxic effects of the compounds a parallel measurement of cell viability was performed based on the CellTiter Glo Assay (Promega).
On the next day 10 μl of test compounds dissolved in DMEM/F12 2% FBS and 0,01% BSA are placed in the wells of the microtiter plates. Final concentrations ranged from 50 μM to 0.03 nM. […] On the next day the NanoLuc Luciferase activity was measured by addition of 40 μl of NanoLuc substrate and lysis buffer (Promega, Madison, Wisconsin) diluted in 2 mM Ca-tyrode buffer (20 mM HEPES, 130 mM NaCl, 5 mM KCl, 5 mM NaHCO3, 2 mM MgCl2, pH 7,4). The resulting light signal was measured for 60 seconds in a luminometer. Every sample was tested in quadruples and mean values were used to calculate the IC50 values and efficacies of the compounds.

[2] = tested on: UMUC9 cells; test: Proliferation UMUC9 H2B-GFP assay (Incucyte); assay type: cell-based; conditions: 7 days of treatment; for Emax: UM-UC-9, 168 h, % efficacy (span); for IC50: UM-UC-9, relative IC50, Day 1 subtracted, percentage of DMSO control
Protocol: Proliferation UMUC9 H2B-GFP assay
Instrument: Incucyte® (Sartorius).
Description: Incucyte® Proliferation Assay measures cell proliferation based on nuclei count using live-cell time-lapse imaging. […] Measurements were performed on the day of treatment (Day 1 reading) and after 7 days of treatment (Day 8 reading). Green fluorescence in cell nuclei is measured using the instrument (Image Channels: Phase, Green; Acquisition time: 300 ms; Magnification: 4×).
Analysis: Selected metrics for analysis: Phase Object Confluence (Percent), Nuclei Count (1/Well) and Total Nuclei Area (μm^2/Well). Day 1 measurements were subtracted from each Day 8 measurement and expressed as percentage of the vehicle (DMSO) control. Percentage proliferation values were then plotted against compound concentration using GraphPad PRISM software. The Sigmoidal 4PL X is log (concentration) model of […] was used. Relative IC50 values and % efficacy (span) is reported below.

[3] = PPARG_RT-112_FABP4_NLuc_inverse agonist IC50 - [mol/l]

Row | SMILES | IC50 [1, 3] | Emax [1] | Emax [2] | IC50 [2] | IC50 ([1]; read-out: PPARG_RT-112_FABP4_NLuc_inverse agonist IC50 - [mol/l])
1 | C#Cc1cc(F)c(C(=O)NCc2ccc(F)c(F)c2)cc1C(=O)Nc1ccccc1 [Example 40, N^1-(3,4-difluorobenzyl)-4-ethynyl-6-fluoro-N^3-phenylisophthalamide] | 1600 nM | 114% | 72.1% | 391 nM | 
2 | O=C(NCc1ccc(F)c(F)c1)c1cc(Cl)c(Cl)c(C(=O)Nc2cnccn2)c1 [Example 42, 4,5-dichloro-N^1-(3,4-difluorobenzyl)-N^3-(pyrazin-2-yl)isophthalamide] | 4.7 nM | 102% | 68.6% | 1.94 nM | 
3 | O=C(NCc1ccc(F)c(F)c1)c1ccc(Cl)c(C(=O)Nc2ccccc2)c1 [Example 44, 4-chloro-N^1-[(3,4-difluorophenyl)methyl]-N^3-phenylbenzene-1,3-dicarboxamide] |  | 51.5% | 103% |  | 7400 nM
4 | Cc1ccccc1CNC(=O)c1ccc(Cl)c(C(=O)Nc2ccccc2)c1 [Example 47, 4-chloro-N^1-[(2-methylphenyl)methyl]-N^3-phenylbenzene-1,3-dicarboxamide] | 895 nM | 92% | 66.9% | 2240 nM | 
5 | O=C(NCc1ccccc1)c1cc(Cl)c(Br)c(C(=O)Nc2ccccc2)c1 [Example 49, N^1-benzyl-4-bromo-5-chloro-N^3-phenylbenzene-1,3-dicarboxamide] | 0.99 nM | 72.5% | 34.5% | 3170 nM | 
6 | Cc1ccccc1NC(=O)c1cc(C(=O)NCc2ccccc2)cc(Cl)c1Br [Example 50, N^1-benzyl-4-bromo-5-chloro-N^3-(2-methylphenyl)benzene-1,3-dicarboxamide] | 0.45 nM | 108% | 50.8% | 5.06 nM | 
7 | Cc1c(F)c(C(=O)NCc2ccc(F)c(F)c2)cc(C(=O)Nc2ccc(OCC(C)(C)O)cn2)c1Cl [Example 52, 4-chloro-N^1-[(3,4-difluorophenyl)methyl]-6-fluoro-N^3-[5-(2-hydroxy-2-methylpropoxy)pyridin-2-yl]-5-methylbenzene-1,3-dicarboxamide] | 1.5 nM | 96% | 28.6% | 746 nM | 
